Data from patent US9205121B2, “Echinacea formulation” (Integria Healthcare (Australia) PTY LTD, priority 2004, dated 2015).
Blank lines part the entries; values can stand above or below the compound they belong to.

Tests used:
[1] = system: human liver microsomes; type: in vitro ADME
Experimental: Livers were obtained from organ donors according to procedures is approved by the University of Queensland ethics committees. Samples of human liver were frozen in liquid nitrogen and stored at −70° C. prior to use. Microsomes were prepared according to the method of Guengerich except that microsomes were subjected to a final wash in 10 mM Tris-acetate, 1 mM EDTA and 20% glycerol pH 7.4 (resuspension buffer) to remove residual drugs (e.g. phenytoin—data not shown) present in donor livers.
Incubations (0.5 mL) with tissue fractions contained either the microsomal fraction at […] or the cytosolic fraction at 5 mg/mL protein in 100 mM potassium phosphate (pH 7.4) supplemented with is substrates (synthetic alkylamides 6, 11, 3 and 12 or the alkylamide fraction from the ethanolic liquid as required—see Figure legends for concentrations used) added from ethanolic stocks. Final ethanol concentrations were either 0.70% or 0.96% and were consistent in each assay. Reactions were initiated by the addition of an NADPH-generating system consisting of (final concentrations) […] NADP+, 10 mM glucose-6-phosphate and 0.5 μ/mL glucose-6-phosphate dehydrogenase. Negative controls and cytosolic incubations lacked an NADPH-generating system. Reaction mixtures were incubated at 37° C. with gentle agitation for the duration of each experiment. Reactions were terminated by addition of an equal volume of 100% methanol to a sample aliquot. Diluted samples were then centrifuged at 16000×g for 2 minutes and supernatants stored at −20° C. until analysis by LCMS.
Alkylamide concentrations in samples were determined by LCMS using a gradient HPLC system (Shimadzu LC1OAT) coupled to a quadrupole mass spectrometer (Shimadzu, QP8000a) operating in positive SIM mode with an APCI interface. The mobile phases were a mixture of water and acetonitrile. Alkylamides 6 and 3 were detected using a 65% acetonitrile isocratic run. Alkylamides 11 and 12 were detected using an 85% acetonitrile isocratic run. The alkylamide fraction was analysed using a gradient that increased from 20% to 40% acetonitrile over the first 5 minutes, then to 80% acetonitrile over the following 15 minutes and to 100% over the next 3 minutes followed by a re-equilibration period at 20% acetonitrile prior to the next injection. A similar gradient was used in scan and then SIM (M+1 of 248, 264, 246, 192, 280 and 282) modes to identify metabolites of 3. A C18, 3 m, 100×2.00 mm Phenomenex Luna column was used with a solvent flow rate of 0.3 mL/minute. All alkylamides were linear in the range 0.001-10 mg/mL (R^2>0.9) with a coefficient of variation between 4 and 5.
A number of pure, synthetic alkylamides (6, 11 3 and 12 as shown in FIG. 1) as well as the complex mixture of alkylamides obtained from an ethanolic extract of Echinacea were investigated for their susceptibility to liver P450-mediated degradation in microsomal preparations from four different subjects. The concentration of each substrate remaining at the given time points was quantified with LCMS and rates of substrate depletion were calculated as a percentage of the original concentration. […] From FIG. 3 it can be seen that there was a clear difference in the ability of the liver microsomal P450s to metabolise the synthetic 2-ene and the 2,4-diene alkylamides. […] In contrast, the 2,4-dienes were rapidly metabolised with only 9±2% of the original concentration of 3 and 2±1% of the original concentration of 12 detected after 2 hours. […]

[2] = system: phagocytosis; settings: in vitro and in vivo; cited from earlier work
[3] = system: TNF-α; assay: TNF-α production under LPS stimulated conditions in macrophages; type: cell-based, mouse; settings: RAW 264.7 macrophages
From the text: Macrophages play an essential role in the development of specific and non-specific immune responses. Upon activation by a variety of stimuli macrophages release a number of products having biological activity. Such products include cytokines, such as TNF-α, […] and nitric oxide (NO). Macrophages undergo a process of cellular “activation” which is associated with morphological, functional, and biochemical changes in the cells in response to inflammatory signals or antigens. One prominent characteristic of activated macrophages is their increased capacity to release pro-inflammatory and cytotoxic mediators, which help aid in the resolution of infection or inflammation. As a prelude to macrophage activation LPS must bind to a receptor on the macrophage cell surface. Several LPS receptors have been identified in different macrophages with the most thoroughly studied receptor being the CD14 receptor.
The synthetic alkylamides correspond to the major 2-ene and 2,4-diene alkylamides found in Echinacea. These alkylamides are illustrated in FIG. 1 as compounds 6 and 3 respectively.

- % of initial levels still present ([1]; human, 2 h, pH 7.4): 91±24%
SMILES: C#CC#CCCCC/C=C/C(=O)NCC(C)C [alkylamide 6, (2E)-N-isobutylundeca-2-ene-8,10-diynamide]

SMILES: CC#CC#CCCCC/C=C/C(=O)NCC(C)C [alkylamide 11, (2E)-N-isobutyldodeca-2-ene-8,10-diynamide]
- rate of alkylamide metabolism relative to the rate found for 6 [1]: two fold higher

- rate of alkylamide metabolism relative to the rate found for 6 [1]: ten fold higher
SMILES: CCCCCCC/C=C/C=C/C(=O)NCC(C)C [alkylamide 12, (2E-4E)-N-isobutyldodea-2,4-dienamide]

SMILES: O=C(/C=C/c1ccc(O)c(O)c1)O[C@@H](C(=O)O)[C@@H](OC(=O)/C=C/c1ccc(O)c(O)c1)C(=O)O [cichoric acid]
- stimulation of phagocytosis [2]: marked stimulation
- TNF-α production under LPS stimulated conditions [3]: significantly decreased
